Where two headings read alike, the source gives them in different places.

In general, IC50 refers to the concentration at which inhibition is half-maximal.

In data set [1] the test system is CH1/PA-1 (ovarian teratocarcinoma) cells. In words: MTT antiproliferative assay, CH1/PA-1. Format: cell-based, human. The conditions noted are these: exposure time 96 h, means ± standard deviations. The method, then:
CH1/PA-1 (ovarian teratocarcinoma) cells were a generous gift from Lloyd R. Kelland (CRC Centre for Cancer Therapeutics, Institute of Cancer Research, Sutton, UK). A549 (non-small cell lung cancer), SW480, and HCT116 (both colon cancer) cells were kindly provided by the Institute of Cancer Research, Department of Medicine I, Medical University of Vienna, Austria. All cell lines were grown as monolayer cultures in Eagle’s MEM supplemented with L-glutamine (4 mM), sodium pyruvate (1 mM) and 1% (v/v) non-essential amino acid solution (all from Sigma-Aldrich) and 10% (v/v) heat-inactivated fetal calf serum (FCS, BioWest) in 75-cm^2 flasks (Starlab) at 37 °C under a humidified atmosphere containing 5% CO2 in air.
Antiproliferative activity of the compounds was determined with the colorimetric MTT assay (MTT = 3-(4,5-dimethyl-2-thiazolyl)-2,5-diphenyl-2H-tetrazolium bromide). CH1/PA-1, HCT116, SW480, and A549 cells with cell numbers of 1 × 10^3, 1.5 × 10^3, 2 × 10^3, and 3 × 10^3, respectively, were seeded in 100 μL per well into 96-well microculture plates (Starlab). After 24 h, test compounds were dissolved in DMSO (Fisher Scientific), serially diluted in complete MEM not to exceed a final DMSO content of 0.5% (v/v) and added in 100 μL per well. After 96 h, the drug-containing medium was replaced with 100 µL of RPMI 1640/MTT mixture, i. e., 6 parts of RPMI 1640 medium (Sigma-Aldrich; supplemented with 10% heat-inactivated fetal bovine serum and 4 mM L-glutamine), 1 part of MTT solution in phosphate-buffered saline (5 mg/mL; both from Sigma-Aldrich). After incubation for 4 h, the MTT-containing medium was replaced with 150 μL DMSO per well to dissolve the formazan product formed by viable cells. Optical densities at 550 nm (and at the reference wavelength of 690 nm) were measured with a microplate reader (ELx808, Bio-Tek). The IC50 values relative to untreated controls were interpolated from concentration–effect curves. At least three independent experiments were performed, each with triplicates per concentration level.
A general note: Formazan colour is commonly taken as a measure of viable cells.

Data set [2] concerns HCT116 (colon cancer) cells. The experiment in a line: MTT antiproliferative assay, HCT116. Format: cell-based, human. The conditions noted are these: exposure time 96 h, means ± standard deviations. As to the method:
(§1) CH1/PA-1 (ovarian teratocarcinoma) cells were a generous gift from Lloyd R. Kelland (CRC Centre for Cancer Therapeutics, Institute of Cancer Research, Sutton, UK). A549 (non-small cell lung cancer), SW480, and HCT116 (both colon cancer) cells were kindly provided by the Institute of Cancer Research, Department of Medicine I, Medical University of Vienna, Austria. All cell lines were grown as monolayer cultures in Eagle’s MEM supplemented with L-glutamine (4 mM), sodium pyruvate (1 mM) and 1% (v/v) non-essential amino acid solution (all from Sigma-Aldrich) and 10% (v/v) heat-inactivated fetal calf serum (FCS, BioWest) in 75-cm^2 flasks (Starlab) at 37 °C under a humidified atmosphere containing 5% CO2 in air. […] After 24 h, test compounds were dissolved in DMSO (Fisher Scientific), serially diluted in complete MEM not to exceed a final DMSO content of 0.5% (v/v) and added in 100 μL per well. After 96 h, the drug-containing medium was replaced with 100 µL of RPMI 1640/MTT mixture, i. e., 6 parts of RPMI 1640 medium (Sigma-Aldrich; supplemented with 10% heat-inactivated fetal bovine serum and 4 mM L-glutamine), 1 part of MTT solution in phosphate-buffered saline (5 mg/mL; both from Sigma-Aldrich). After incubation for 4 h, the MTT-containing medium was replaced with 150 μL DMSO per well to dissolve the formazan product formed by viable cells. Optical densities at 550 nm (and at the reference wavelength of 690 nm) were measured with a microplate reader (ELx808, Bio-Tek). The IC50 values relative to untreated controls were interpolated from concentration–effect curves. At least three independent experiments were performed, each with triplicates per concentration level.

Data set [3] is described as follows: Lipophilicity by RP-UHPLC capacity factors (logkw, Φ0). Format: physicochemical. From the text: It stands to reason that the higher the lipophilicity, the higher the cell accumulation; as far as passive diffusion is concerned, the higher efficiency with which normal cell function is compromised. As a consequence, lipophilicity is an important factor in drug development, described by the partition coefficient logP, which is routinely determined by the distribution of a compound in 1-octanol/water. However, 1-octanol, a solvent said to closely mimic the solubilizing behavior of cell membranes, forms emulsions with water. Additionally, the shake-flask method, seemingly easy, requires long sample preparation, has a low sample throughput, and lacks reproducibility, as it hinges on exact temperature control and consistent equilibration time allotted for every analyte. The time-consuming nature of this method may also lead to decomposition of the analyte. A concentration-, flow rate-, and column length-independent method is the determination of the capacity factor (k) via HPLC. The capacity factor is a measure for the equilibrium concentration between a polar phase (eluent) and an apolar phase (C18 column coating) and higher resemblance to the partition coefficient in […]. […] The percentage of methanol in the eluent at which logk is equal to zero is Φ0 [27, 28, 29].
The capacity factors k were determined with the use of an RP-UHPLC. The necessary chromatograms were recorded with a Dionex UltiMate 3000 RS UHPLC system (Thermo Fisher Scientific, Bedford, MA, USA) controlled by the Dionex Chromeleon 7.2 software. […] The capacity factors were then calculated as logk = log[(tR − t0)/t0], where tR and t0 are the retention times of the analyte and the dead time marker, respectively, at the respective MeOH:0.1% FA in water ratio. Every retention time was determined in isocratic mode for the different eluent ratios to obtain capacity factors in the linear range (−0.5 ≤ logk ≤ 1.5) in triplicate. A plot of logk against the % of the organic eluent yielded logkw (intercept) and S (slope). Φ0, the factor most closely resembling logP, was then determined as follows: Φ0 = −logkw/S [28].

In data set [4] the test system is SW480 cells. The experiment in a line: Cellular accumulation by ICP-MS quantification of ruthenium (or platinum). Format: cell-based, human. The conditions noted are these: 50 µM, exposure time 2 h, ICP-MS of ruthenium. The method, then: Ruthenium accumulation was measured by means of inductively coupled plasma mass spectrometry (ICP-MS) upon 2 h exposure of SW480 cells to 50 µM of each compound.
Cellular accumulation of the compounds was studied based on a previously described method with modifications as follows: SW480 cells with a number of 1.8 × 10^5 per well were seeded into 12-well plates in aliquots of 1 mL complete MEM and incubated at 37 °C for 24 h. Then, cells were exposed for 2 h at 37 °C to 50 μM solutions of the test compounds (containing 0.5% DMSO) in 500 µL of fresh complete MEM upon exchange of the medium. Afterwards, cells were washed three times with PBS, and lyzed with 0.4 mL sub-boiled HNO3 per well for 1 h at room temperature. Ruthenium content was quantified by ICP-MS using an Agilent 7500ce quadrupole ICP-MS instrument (Agilent Technologies, Waldbronn, Germany) equipped with a CETAC ASX-520 autosampler (Nebraska, USA) and a MicroMist nebulizer. Ruthenium and indium standards were obtained from CPI International (Amsterdam, The Netherlands). The instrument was equipped with nickel cones and operated at an RF power of 1560 W, with argon as the plasma gas (15 L/min), carrier gas (1.0–1.1 L/min) and make-up gas (0.1–0.2 L/min). The Agilent MassHunter software package (Workstation Software, Version B.01.01, Build 123.11, Patch 4, 2012) was used for data processing. Results are based on at least three independent experiments, each comprising triplicate samples. The instrument was tuned on a daily basis for maximum sensitivity and doubly charged species as well as oxide rates were <5%.

The subject of data set [5] is SW480 (colon cancer) cells. The experiment in a line: MTT antiproliferative assay, SW480. Format: cell-based, human. The conditions noted are these: exposure time 96 h, means ± standard deviations. As to the method:
as §1

The subject of data set [6] is A549 (non-small cell lung cancer) cells. In words: MTT antiproliferative assay, A549. In kind it is cell-based, human. The conditions noted are these: exposure time 96 h, means ± standard deviations. As to the method: as §1
The conditions of data set [7]: MeOH, conventional desk lamp, UV-VIS 250–700 nm.
Experimental: Light activation studies were performed on the same UV-VIS spectrometer. Fourty microliters of solutions (MeOH) were irradiated with a conventional desk lamp, and every 2.5–10 min (depending on progress) a wavelength scan (250–700 nm) was recorded.
Data set [8] relates to SW480 cells. More on the design: method as in PMID 27055943. The conditions noted are these: exposure time 2 h, platinum; cited from earlier work.
Data set [9] relates to SW480 (colon cancer) cells. Details: method as in PMID 25032896. The conditions noted are these: MTT assay, 96 h; cited from earlier work.
Data set [10] deals with A549 (non-small cell lung cancer) cells. Details: method as in PMID 25032896. The conditions noted are these: MTT assay, 96 h; cited from earlier work.
Data set [11] relates to CH1/PA-1 (ovarian teratocarcinoma) cells. More on the design: method as in PMID 25032896. The conditions noted are these: MTT assay, 96 h; cited from earlier work.

For the compound `Cc1ccc(C(C)C)cc1.F[P-](F)(F)(F)(F)F.O=C1C(=C(NCc2ccccc2)[O][Ru+])C(=O)c2ccccc21.c1ccncc1` [1f], the concentration for half-maximal inhibition (IC50) was 8.2 ± 2 µM in [1], 20.2 ± 6.4 µM in data set [2], 6.3 ± 1.1 µM in [5] and 22.1 ± 3.2 µM in data set [6]. Besides, the Intercept logkw in [3] (RP-UHPLC, MeOH/0.1% formic acid in water, 25 °C, logk extrapolated to 100% water) is 5.25. The compound further came in with a Φ0 in data set [3] (percentage of methanol in the eluent at which logk is zero, Φ0 = −logkw/S) of 62.07. For the same compound, the “Slope S” value in [3] (slope of logk against % organic eluent (MeOH)) is given as −0.0845. For the same compound, the “cellular accumulation, fg Ru or Pt/Cell” value in the data set on SW480 cells [4] is reported as 231 ± 93 fg Ru or Pt/Cell. Further, the “time until no more change upon light irradiation (completion of the reaction)” value in data set [7] was 75 min.
Consider `N.N.[Cl][Pt][Cl]` [Cisplatin], for which, in the data set with SW480 cells [8], the “cellular accumulation, fg Ru or Pt/Cell” value is 12 ± 2 fg Ru or Pt/Cell. Moreover, the IC50 in [9] is 3.3 ± 0.2 µM; in data set [10] it was 6.2 ± 1.2 µM; in [11], 0.077 ± 0.006 µM.

Values taken from paper PMC6651387, “Fine-Tuning the Activation Mode of an 1,3-Indandione-Based Ruthenium(II)-Cymene Half-Sandwich Complex by Variation of Its Leaving Group” (Molecules, 2019).
